Our source for the ED50 values is ChEMBL document CHEMBL1149131, “QSAR study of anticonvulsant negative allosteric modulators of the AMPA receptor” (J Med Chem, 2004).

The structures appear in SMILES notation.

In assay [1] the target is T1, Glutamate receptor ionotropic, AMPA (Mus musculus) (UniProt P23819+P23818+Q9Z2W8+Q9Z2W9). In words: In vivo anticonvulsant activity was measured as median effective dose required to prevent tonic phase of seizure in DBA/2 mice. It counts as functional, organism-based.
For assay [2], the target named is T1, Glutamate receptor ionotropic, AMPA (Mus musculus). Nature of the assay: In vivo anticonvulsant activity was measured as median effective dose required to prevent clonic phase of seizure in DBA/2 mice. It counts as functional, organism-based.

T1 sequence (P23818 whole entry, looked up): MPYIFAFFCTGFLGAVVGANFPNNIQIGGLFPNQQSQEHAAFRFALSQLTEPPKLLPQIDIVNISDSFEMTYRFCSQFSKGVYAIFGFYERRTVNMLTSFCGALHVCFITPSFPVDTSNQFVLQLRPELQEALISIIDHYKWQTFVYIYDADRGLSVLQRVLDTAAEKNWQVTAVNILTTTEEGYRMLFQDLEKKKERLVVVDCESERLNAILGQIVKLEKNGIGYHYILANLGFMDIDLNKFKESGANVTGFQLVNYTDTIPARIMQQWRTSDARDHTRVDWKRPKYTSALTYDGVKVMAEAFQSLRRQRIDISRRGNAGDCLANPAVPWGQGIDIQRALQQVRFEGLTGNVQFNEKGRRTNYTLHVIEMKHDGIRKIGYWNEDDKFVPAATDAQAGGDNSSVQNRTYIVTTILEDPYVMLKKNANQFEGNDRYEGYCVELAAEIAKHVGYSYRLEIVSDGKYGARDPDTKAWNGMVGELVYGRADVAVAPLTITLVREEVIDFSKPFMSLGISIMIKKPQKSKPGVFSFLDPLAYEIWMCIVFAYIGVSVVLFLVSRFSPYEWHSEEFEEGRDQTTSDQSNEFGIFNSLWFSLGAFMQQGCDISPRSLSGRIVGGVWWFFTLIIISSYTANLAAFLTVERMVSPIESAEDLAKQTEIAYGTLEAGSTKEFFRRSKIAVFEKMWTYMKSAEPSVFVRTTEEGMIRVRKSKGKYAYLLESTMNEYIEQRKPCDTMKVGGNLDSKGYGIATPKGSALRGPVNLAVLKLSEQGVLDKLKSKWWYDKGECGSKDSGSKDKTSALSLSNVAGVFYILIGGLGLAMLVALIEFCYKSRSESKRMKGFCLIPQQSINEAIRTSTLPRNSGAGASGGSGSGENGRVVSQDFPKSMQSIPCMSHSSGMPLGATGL
T1 sequence (P23819 whole entry, looked up): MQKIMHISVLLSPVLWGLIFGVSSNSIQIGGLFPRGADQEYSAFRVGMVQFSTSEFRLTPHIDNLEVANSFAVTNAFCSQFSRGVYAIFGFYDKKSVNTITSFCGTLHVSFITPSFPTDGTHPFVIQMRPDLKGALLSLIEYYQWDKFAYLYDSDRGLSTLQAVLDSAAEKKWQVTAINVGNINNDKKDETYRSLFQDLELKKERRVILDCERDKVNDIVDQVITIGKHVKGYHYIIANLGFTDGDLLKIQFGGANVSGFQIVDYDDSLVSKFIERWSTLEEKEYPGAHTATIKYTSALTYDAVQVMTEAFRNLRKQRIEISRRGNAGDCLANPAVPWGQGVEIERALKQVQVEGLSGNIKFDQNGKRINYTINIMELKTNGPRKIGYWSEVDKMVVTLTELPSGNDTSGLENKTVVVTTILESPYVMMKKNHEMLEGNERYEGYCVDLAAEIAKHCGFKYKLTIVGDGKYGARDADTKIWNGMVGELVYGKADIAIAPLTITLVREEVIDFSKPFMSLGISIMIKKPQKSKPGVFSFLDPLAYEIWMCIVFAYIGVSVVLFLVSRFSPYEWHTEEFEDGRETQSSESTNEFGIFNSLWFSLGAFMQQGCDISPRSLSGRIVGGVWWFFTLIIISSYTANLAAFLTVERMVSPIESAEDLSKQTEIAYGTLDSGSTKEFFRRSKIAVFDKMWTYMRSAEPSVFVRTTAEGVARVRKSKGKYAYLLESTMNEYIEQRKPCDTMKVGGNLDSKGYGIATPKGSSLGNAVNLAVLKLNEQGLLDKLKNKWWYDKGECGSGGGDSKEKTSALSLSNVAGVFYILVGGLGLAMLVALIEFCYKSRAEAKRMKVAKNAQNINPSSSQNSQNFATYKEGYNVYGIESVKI
T1 sequence (Q9Z2W8 whole entry, looked up): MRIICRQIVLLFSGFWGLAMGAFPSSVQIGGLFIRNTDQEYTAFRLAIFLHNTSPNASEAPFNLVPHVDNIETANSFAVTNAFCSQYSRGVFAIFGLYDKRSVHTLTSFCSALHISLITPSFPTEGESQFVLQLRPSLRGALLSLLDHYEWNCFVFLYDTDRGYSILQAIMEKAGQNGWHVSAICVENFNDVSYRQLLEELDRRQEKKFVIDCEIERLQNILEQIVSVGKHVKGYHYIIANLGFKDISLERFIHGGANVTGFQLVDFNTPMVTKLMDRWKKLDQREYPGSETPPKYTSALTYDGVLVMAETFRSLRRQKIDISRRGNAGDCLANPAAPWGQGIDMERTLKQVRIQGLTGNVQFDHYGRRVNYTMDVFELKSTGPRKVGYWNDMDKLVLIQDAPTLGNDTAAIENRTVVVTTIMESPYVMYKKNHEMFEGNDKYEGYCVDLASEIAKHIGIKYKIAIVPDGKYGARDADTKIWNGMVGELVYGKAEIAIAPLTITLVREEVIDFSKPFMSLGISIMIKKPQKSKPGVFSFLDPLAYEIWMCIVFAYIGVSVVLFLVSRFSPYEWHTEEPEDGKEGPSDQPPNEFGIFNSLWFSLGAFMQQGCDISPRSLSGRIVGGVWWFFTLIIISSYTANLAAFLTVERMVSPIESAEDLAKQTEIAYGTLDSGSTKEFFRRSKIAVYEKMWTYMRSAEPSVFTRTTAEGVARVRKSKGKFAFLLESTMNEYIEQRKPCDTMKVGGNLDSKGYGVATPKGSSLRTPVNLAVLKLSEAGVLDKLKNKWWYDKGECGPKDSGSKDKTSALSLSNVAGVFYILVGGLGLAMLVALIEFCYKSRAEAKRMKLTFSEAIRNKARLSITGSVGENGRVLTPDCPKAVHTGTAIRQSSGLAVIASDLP
T1 sequence (Q9Z2W9 whole entry, looked up): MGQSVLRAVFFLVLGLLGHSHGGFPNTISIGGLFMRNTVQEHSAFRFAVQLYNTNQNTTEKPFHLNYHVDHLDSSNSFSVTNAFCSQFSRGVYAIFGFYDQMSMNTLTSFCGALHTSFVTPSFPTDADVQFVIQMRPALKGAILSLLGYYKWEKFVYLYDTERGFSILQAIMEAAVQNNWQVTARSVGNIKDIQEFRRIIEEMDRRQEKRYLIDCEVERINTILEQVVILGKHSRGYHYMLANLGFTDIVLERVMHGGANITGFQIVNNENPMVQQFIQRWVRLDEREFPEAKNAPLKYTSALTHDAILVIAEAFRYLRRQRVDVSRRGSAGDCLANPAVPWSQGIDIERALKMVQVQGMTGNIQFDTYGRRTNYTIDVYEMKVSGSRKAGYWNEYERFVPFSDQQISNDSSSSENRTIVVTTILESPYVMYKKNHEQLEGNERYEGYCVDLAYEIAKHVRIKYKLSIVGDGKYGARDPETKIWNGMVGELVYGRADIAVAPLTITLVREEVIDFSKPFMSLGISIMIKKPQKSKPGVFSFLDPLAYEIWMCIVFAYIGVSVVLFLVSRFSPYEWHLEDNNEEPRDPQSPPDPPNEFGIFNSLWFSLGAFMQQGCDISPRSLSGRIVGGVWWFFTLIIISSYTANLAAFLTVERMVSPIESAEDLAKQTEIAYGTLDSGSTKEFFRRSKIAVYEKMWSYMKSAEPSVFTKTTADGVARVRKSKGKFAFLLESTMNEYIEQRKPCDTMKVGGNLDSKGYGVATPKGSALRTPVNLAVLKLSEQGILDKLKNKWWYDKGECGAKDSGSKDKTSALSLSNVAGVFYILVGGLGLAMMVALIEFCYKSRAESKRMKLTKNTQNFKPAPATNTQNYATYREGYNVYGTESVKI

A word on the ED50: it is the dose at which the effect has come halfway, by size or by number of responders. A high value points to weaker potency. Take `COc1cc2c(cc1OC)C(c1ccccc1)=Nn1c(O)nnc1C2`: the results for the ED50 in assay [1] and in assay [2] were 27.5 µmol/kg and 44.6 µmol/kg, respectively.

In the case of `COc1ccc2c(c1)CC(=O)NN1C(c3ccccc3)=NOC21c1ccccc1` (configuration not stated), the ED50 in assay [1] worked out at 100 µmol/kg; in assay [2], 119 µmol/kg.

On to `COc1cc2c(cc1OC)C(c1ccccc1)=NN(C)C(=O)C2`, for which the ED50 in assay [1] turned out to be 26.7 µmol/kg; in assay [2], 37.8 µmol/kg.

For `COc1cc2c(cc1OC)C(c1ccc(F)cc1)=NNC(=O)C2`, the figures for the ED50 in assay [1] and in assay [2] were 57.2 µmol/kg and 78 µmol/kg, respectively.

As for `O=C1Cc2cc3c(cc2C(c2ccc(F)cc2)=NN1)OCO3`, the ED50 in assay [1] stood at 63.8 µmol/kg; in assay [2], 89.8 µmol/kg.

Turning to `COc1cc2c(cc1OC)C(c1ccc([N+](=O)[O-])cc1)=NN(C)C(=S)C2`, the ED50 in assay [1] amounted to 81.5 µmol/kg; in assay [2] it was 103 µmol/kg.

With `COc1cc2c(cc1OC)C(c1cccc([N+](=O)[O-])c1)=Nn1c(O)nnc1C2`, the results for the ED50 in assay [1] and in assay [2] were 43.2 µmol/kg and 56.4 µmol/kg, respectively.

For the compound `COc1cc2c(cc1OC)C(c1ccc(Cl)cc1)=NNC(=O)C2`, the results for the ED50 in assay [1] and in assay [2] were 75.3 µmol/kg and 102 µmol/kg, respectively.

As to `Nc1ccc(-c2nnc(O)c3cc4c(cc23)OCO4)cc1`, the ED50 is 7.56 µmol/kg in assay [1] and 21.2 µmol/kg in assay [2].

Take `COc1cc2c(O)nnc(-c3cccc([N+](=O)[O-])c3)c2cc1OC`: the figures for the ED50 in assay [1] and in assay [2] were 75.5 µmol/kg and 81.7 µmol/kg, respectively.

`COc1cc2c(cc1OC)C(c1ccc(N)cc1)=NNC(=O)C2`: the ED50 in assay [1] was 12.6 µmol/kg; in assay [2], 15 µmol/kg.

As for `COc1cc2c(cc1OC)C(c1ccc(N)cc1)=NN(C)C(=O)C2`, the ED50 in assay [1] came out at 43.7 µmol/kg; in assay [2] it was 50.2 µmol/kg.

For the compound `COc1cc2c(cc1OC)C(c1ccc(Cl)cc1)=NN(C)C(=O)C2`, the ED50 in assay [1] was determined as 38.6 µmol/kg; in assay [2], 41.2 µmol/kg.

For `COc1cc2c(cc1OC)C(c1ccc(Br)cc1)=NN=C(S)C2`, the values for the ED50 in assay [1] and in assay [2] were 33.3 µmol/kg and 52.1 µmol/kg, respectively.

As for `COc1cc2c(cc1OC)C(c1cccc(N)c1)=NNC(=O)C2`, the ED50 was 18.3 µmol/kg in assay [1] and 19.3 µmol/kg in assay [2].

Regarding `COc1cc2c(cc1OC)C(c1ccc([N+](=O)[O-])cc1)=Nn1c(C)nnc1C2`, the ED50 in assay [1] stood at 59.3 µmol/kg; in assay [2], 66.7 µmol/kg.

As for `COc1cc2c(O)nnc(-c3ccc(NC(C)=O)cc3)c2cc1OC`, the results for the ED50 in assay [1] and in assay [2] were 48.8 µmol/kg and 62 µmol/kg, respectively.

As for `COc1cc2c(cc1OC)C(c1cccc([N+](=O)[O-])c1)N(C(C)=O)CC2` (configuration not stated), the ED50 in assay [1] was 12.7 µmol/kg; in assay [2], 37.2 µmol/kg.

Consider `COc1cc2c(-c3cccc(N)c3)nn(C)c(=O)c2cc1OC`, for which the median effective dose (ED50) worked out at 55.2 µmol/kg in assay [1] and 63.7 µmol/kg in assay [2].

In the case of `COc1cc2c(cc1OC)C(c1ccc(N(C(C)=O)C(C)=O)cc1)=NN(C(C)=O)C(=O)C2`, the ED50 in assay [1] is 43.9 µmol/kg; in assay [2], 56.8 µmol/kg.

Regarding `COc1cc2c(O)nnc(-c3ccc(N)cc3)c2cc1OC`, the ED50 turned out to be 52 µmol/kg in assay [1] and 60.5 µmol/kg in assay [2].

Turning to `Nc1cccc(-c2nnc(O)c3cc4c(cc23)OCO4)c1`, the ED50 in assay [1] came to 15.7 µmol/kg; in assay [2] it was 23.3 µmol/kg.

Consider `COc1cc2c(cc1OC)C(c1ccc(Br)cc1)=NN(C)C(=O)C2`, for which the ED50 in assay [1] came to 38 µmol/kg; in assay [2] it was 63 µmol/kg.

Take `CNC(=O)N1N=C(c2ccc(N)cc2)c2cc3c(cc2CC1=O)OCO3`: the ED50 in assay [1] was 8.7 µmol/kg; in assay [2], 12.4 µmol/kg.

On to `SC1=NN=C(c2ccccc2)c2cc3c(cc2C1)OCO3`, for which the ED50 worked out at 18.8 µmol/kg in assay [1] and 23.8 µmol/kg in assay [2].

Regarding `COc1cc2c(cc1OC)C(c1ccc(Br)cc1)=NN(C)C(=S)C2`, the figures for the ED50 in assay [1] and in assay [2] were 60.4 µmol/kg and 105 µmol/kg, respectively.

`CN1N=C(c2ccc(N)cc2)c2cc3c(cc2CC1=O)OCO3`: the figures for the ED50 in assay [1] and in assay [2] were 29.5 µmol/kg and 41.1 µmol/kg, respectively.

For the compound `COc1cc2c(cc1OC)C(c1cccc(N)c1)=NN(C)C(=O)C2`, the results for the ED50 in assay [1] and in assay [2] were 30.6 µmol/kg and 36.8 µmol/kg, respectively.

`Nc1ccc(C2=NNC(=O)Cc3cc4c(cc32)OCO4)cc1`: the ED50 is 10.9 µmol/kg in assay [1] and 15.4 µmol/kg in assay [2].

Take `COc1cc2c(cc1OC)C(c1ccccc1)=NN=C(S)C2`: the ED50 stood at 15 µmol/kg in assay [1] and 19.7 µmol/kg in assay [2].

Regarding `COc1cc2c(cc1OC)C(c1ccc(N)cc1)=Nn1cnnc1C2`, the ED50 in assay [1] was determined as 48.3 µmol/kg; in assay [2], 57.3 µmol/kg.

Take `COc1cc2c(cc1OC)C(c1ccc([N+](=O)[O-])cc1)=Nn1c(O)nnc1C2`: the ED50 worked out at 58.3 µmol/kg in assay [1] and 74.1 µmol/kg in assay [2].

On to `COc1cc2c(cc1OC)C(c1cccc(N)c1)=Nn1c(O)nnc1C2`, for which the ED50 was 13.1 µmol/kg in assay [1] and 20.1 µmol/kg in assay [2].

With `COc1ccc2c(c1)CC(=O)N(C)N=C2c1ccccc1`, the ED50 in assay [1] came to 99.1 µmol/kg; in assay [2], 117 µmol/kg.

In the case of `COc1cc2c(cc1OC)C(c1ccc(Br)cc1)NCC2` (configuration not stated), the ED50 came out at 12.5 µmol/kg in assay [1] and 30.6 µmol/kg in assay [2].

As to `O=C1Cc2cc3c(cc2C(c2ccc(O)cc2)=NN1)OCO3`, the ED50 in assay [1] came to 49.6 µmol/kg; in assay [2] it was 52.3 µmol/kg.

With `COc1cc2c(cc1OC)C(c1ccc(F)cc1)=Nn1c(O)nnc1C2`, the ED50 in assay [1] was 21.8 µmol/kg; in assay [2] it was 32.1 µmol/kg.

Consider `CN1N=C(c2ccccc2)c2cc3c(cc2CC1=O)OCO3`, for which the ED50 came to 70.4 µmol/kg in assay [1] and 82.5 µmol/kg in assay [2].

Take `COc1cc2c(O)nnc(-c3cccc(N)c3)c2cc1OC`: the ED50 worked out at 59.9 µmol/kg in assay [1] and 68.3 µmol/kg in assay [2].

As for `COc1cc2c(cc1OC)C(c1ccc([N+](=O)[O-])cc1)NCC2` (configuration not stated), the ED50 was 56.1 µmol/kg in assay [1] and 100 µmol/kg in assay [2].

As to `COc1cc2c(cc1OC)C(c1cccc(N)c1)=NN=C(S)C2`, the ED50 is 9.1 µmol/kg in assay [1] and 18.8 µmol/kg in assay [2].

Regarding `COc1cc2c(cc1OC)C(c1ccc(N)cc1)=NN(C)C(=S)C2`, the ED50 in assay [1] came out at 20.3 µmol/kg; in assay [2], 29.8 µmol/kg.

Regarding `CC1=NN=C(c2ccc(N)cc2)c2cc3c(cc2C1)OCO3`, the ED50 in assay [1] amounted to 25.3 µmol/kg; in assay [2], 35.8 µmol/kg.

With `COc1cc2c(cc1OC)C(c1ccc([N+](=O)[O-])cc1)=NN=C(S)C2`, the ED50 turned out to be 69.8 µmol/kg in assay [1] and 93.4 µmol/kg in assay [2].

With `CNC(=O)n1nc(-c2ccc(N)cc2)c2cc3c(cc2c1=O)OCO3`, the ED50 was determined as 16.8 µmol/kg in assay [1] and 23.4 µmol/kg in assay [2].

Take `COc1cc2c(cc1OC)C(c1ccc(N)cc1)=Nn1c(O)nnc1C2`: the ED50 came to 10.2 µmol/kg in assay [1] and 16.1 µmol/kg in assay [2].

`Oc1nnc(-c2ccccc2)c2cc3c(cc12)OCO3`: the ED50 in assay [1] came out at 31.3 µmol/kg; in assay [2] it was 36.7 µmol/kg.

Take `COc1cc2c(cc1OC)C(c1ccccc1)=NN(C(C)=O)C(=O)C2`: the ED50 in assay [1] came to 72.1 µmol/kg; in assay [2] it was 101 µmol/kg.

`COc1cc2c(cc1OC)C(c1ccc(N)cc1)=Nn1c(C)nnc1C2`: the ED50 in assay [1] stood at 44.7 µmol/kg; in assay [2], 59.9 µmol/kg.

In the case of `COc1cc2c(cc1OC)C(c1ccc(Cl)cc1)=NN=C(S)C2`, the ED50 in assay [1] is 55 µmol/kg; in assay [2], 82.4 µmol/kg.

For `COc1cc2c(cc1OC)C(c1ccc(Cl)cc1)NCC2` (configuration not stated), the results for the ED50 in assay [1] and in assay [2] were 19.3 µmol/kg and 20.1 µmol/kg, respectively.

As for `O=C1Cc2cc3c(cc2C(c2ccccc2)=NN1)OCO3`, the ED50 in assay [1] is 40.6 µmol/kg; in assay [2], 43.3 µmol/kg.

Regarding `COc1cc2c(-c3cccc([N+](=O)[O-])c3)nn(C)c(=O)c2cc1OC`, the ED50 was 80.3 µmol/kg in assay [1] and 110 µmol/kg in assay [2].

Consider `CCCNC(=O)n1nc(-c2ccc(N)cc2)c2cc3c(cc2c1=O)OCO3`, for which the ED50 in assay [1] turned out to be 6.82 µmol/kg; in assay [2], 15.8 µmol/kg.

Regarding `COc1cc2c(cc1OC)C(c1ccc(Br)cc1)=NNC(=O)C2`, the ED50 was 82.5 µmol/kg in assay [1] and 110 µmol/kg in assay [2].

Consider `COc1cc2c(cc1OC)C(c1ccc(N)cc1)=NN=C(S)C2`, for which the ED50 was 3.3 µmol/kg in assay [1] and 6.3 µmol/kg in assay [2].

Take `COc1cc2c(cc1OC)C(c1ccccc1)=NN(C)C(=S)C2`: the ED50 in assay [1] is 24.7 µmol/kg; in assay [2] it was 30.6 µmol/kg.

Consider `Nc1cccc(C2=NNC(=O)Cc3cc4c(cc32)OCO4)c1`, for which the ED50 in assay [1] was 12.7 µmol/kg; in assay [2], 18 µmol/kg.

Regarding `COc1ccc2c(c1)CC(=O)NN=C2c1ccccc1`, the ED50 turned out to be 64.8 µmol/kg in assay [1] and 75.5 µmol/kg in assay [2].

Consider `COc1cc2c(cc1OC)C(c1ccccc1)=NNC(=O)C2`, for which the results for the ED50 in assay [1] and in assay [2] were 31.8 µmol/kg and 33.9 µmol/kg, respectively.

As for `COc1cc2c(cc1OC)C(c1cccc([N+](=O)[O-])c1)NCC2` (configuration not stated), the results for the 50% effective dose (ED50) in assay [1] and in assay [2] were 7.19 µmol/kg and 19.3 µmol/kg, respectively.
